Test results published in patent publication US5843889A, “Glycopeptide antibiotic derivatives” (Eli Lilly and Company, priority 1997, dated 1998).
Values after ≈ are worked out from the molar mass of the structure shown.

Legend:
Assay in all cases: MIC, standard broth micro-dilution assay
Assay type in all cases: cell-based
[1] = tested on: Entercoccus gallinarum 245
Method: (§1) The formula I compounds have in vitro and in vivo activity against Gram-positive pathogenic bacteria. The MIC's were determined using a standard broth micro-dilution assay.

Entercoccus faecalis 276 = tested on: Entercoccus faecalis 276
Method: as §1

[2] = tested on: Entercoccus faecalis 2041
Method: as §1

| Compound | MIC [1] | MIC (Entercoccus faecalis 276) | MIC [2] |
| --- | --- | --- | --- |
| CNC(CC(C)C)C(=O)NC1C(=O)NC(CC(N)=O)C(=O)NC2C(=O)NC3C(=O)NC(C(=O)NC(C(=O)O)c4cc(O)cc(O)c4-c4cc3ccc4O)C(OC3CC(C)(N)C(O)C(C)O3)c3ccc(c(Cl)c3)Oc3cc2cc(c3OC2OC(CO)C(O)C(O)C2OC2CC(C)(NCc3ccc(Oc4ccccc4Cl)c([N+](=O)[O-])c3)C(O)C(C)O2)Oc2ccc(cc2Cl)C1O (stereo not drawn) [Compound 88, 4-[2-chlorophenoxy]-3-nitrobenzyl] | ≤ 0.06 µg/mL | ≤ 0.06 µg/mL | ≤ 0.06 µg/mL |
| CN[C@H](CC(C)C)C(=O)N[C@H]1C(=O)N[C@@H](CC(N)=O)C(=O)N[C@H]2C(=O)N[C@H]3C(=O)N[C@H](C(=O)N[C@H](C(=O)O)c4cc(O)cc(O)c4-c4cc3ccc4O)[C@H](O[C@H]3C[C@](C)(N)[C@@H](O)[C@H](C)O3)c3ccc(c(Cl)c3)Oc3cc2cc(c3O[C@@H]2O[C@H](CO)[C@@H](O)[C@H](O)[C@H]2O[C@H]2C[C@](C)(NCc3ccc(-c4ccc(C)cc4)cc3)[C@@H](O)[C@H](C)O2)Oc2ccc(cc2Cl)[C@H]1O [Compound 97, 4-[4-methylphenyl]benzyl] | 2 µg/mL (≈ 1.13 µM) | ≤ 0.06 µg/mL | ≤ 0.06 µg/mL |
| CCCCCc1ccc(-c2ccc(CNC3(C)CC(OC4C(Oc5c6cc7cc5Oc5ccc(cc5Cl)C(OC5CC(C)(N)C(O)C(C)O5)C5NC(=O)C(NC(=O)C7NC(=O)C(CC(N)=O)NC(=O)C(NC(=O)C(CC(C)C)NC)C(O)c7ccc(c(Cl)c7)O6)c6ccc(O)c(c6)-c6c(O)cc(O)cc6C(C(=O)O)NC5=O)OC(CO)C(O)C4O)OC(C)C3O)cc2)cc1 (stereo not drawn) [Compound 22, 4-[4-pentylphenyl]benzyl] | 1 µg/mL (≈ 0.547 µM) | 4 µg/mL (≈ 2.19 µM) | 2 µg/mL (≈ 1.09 µM) |
| CNC(CC(C)C)C(=O)NC1C(=O)NC(CC(N)=O)C(=O)NC2C(=O)NC3C(=O)NC(C(=O)NC(C(=O)O)c4cc(O)cc(O)c4-c4cc3ccc4O)C(OC3CC(C)(N)C(O)C(C)O3)c3ccc(c(Cl)c3)Oc3cc2cc(c3OC2OC(CO)C(O)C(O)C2OC2CC(C)(NCCCCCCCCCCc3ccccc3)C(O)C(C)O2)Oc2ccc(cc2Cl)C1O (stereo not drawn) [Compound 197, 10-phenyldecyl] | 4 µg/mL (≈ 2.21 µM) | 1 µg/mL (≈ 0.553 µM) | 0.25 µg/mL (≈ 0.138 µM) |
| CNC(CC(C)C)C(=O)NC1C(=O)NC(CC(N)=O)C(=O)NC2C(=O)NC3C(=O)NC(C(=O)NC(C(=O)O)c4cc(O)cc(O)c4-c4cc3ccc4O)C(OC3CC(C)(N)C(O)C(C)O3)c3ccc(c(Cl)c3)Oc3cc2cc(c3OC2OC(CO)C(O)C(O)C2OC2CC(C)(NCc3ccccc3O)C(O)C(C)O2)Oc2ccc(cc2Cl)C1O (stereo not drawn) [Compound 169, 2-hydroxybenzyl] | 4 µg/mL (≈ 2.35 µM) | ≤ 0.06 µg/mL | ≤ 0.06 µg/mL |
| CNC(CC(C)C)C(=O)NC1C(=O)NC(CC(N)=O)C(=O)NC2C(=O)NC3C(=O)NC(C(=O)NC(C(=O)O)c4cc(O)cc(O)c4-c4cc3ccc4O)C(OC3CC(C)(N)C(O)C(C)O3)c3ccc(c(Cl)c3)Oc3cc2cc(c3OC2OC(CO)C(O)C(O)C2OC2CC(C)(NCC34CC5CC(CC(C5)C3)C4)C(O)C(C)O2)Oc2ccc(cc2Cl)C1O (stereo not drawn) [Compound 141, 1-adamantylmethyl] | 4 µg/mL (≈ 2.3 µM) | 0.5 µg/mL (≈ 0.287 µM) | ≤ 0.06 µg/mL |
| CNC(CC(C)C)C(=O)NC1C(=O)NC(CC(N)=O)C(=O)NC2C(=O)NC3C(=O)NC(C(=O)NC(C(=O)O)c4cc(O)cc(O)c4-c4cc3ccc4O)C(OC3CC(C)(N)C(O)C(C)O3)c3ccc(c(Cl)c3)Oc3cc2cc(c3OC2OC(CO)C(O)C(O)C2OC2CC(C)(NCc3ccc4cc(OC)ccc4c3)C(O)C(C)O2)Oc2ccc(cc2Cl)C1O (stereo not drawn) [Compound 65, 6-methoxy-2-naphthylmethyl] | 4 µg/mL (≈ 2.27 µM) | 0.5 µg/mL (≈ 0.284 µM) | ≤ 0.06 µg/mL |
| CNC(CC(C)C)C(=O)NC1C(=O)NC(CC(N)=O)C(=O)NC2C(=O)NC3C(=O)NC(C(=O)NC(C(=O)O)c4cc(O)cc(O)c4-c4cc3ccc4O)C(OC3CC(C)(N)C(O)C(C)O3)c3ccc(c(Cl)c3)Oc3cc2cc(c3OC2OC(CO)C(O)C(O)C2OC2CC(C)(NCc3ccc(-c4ccccc4[N+](=O)[O-])c([N+](=O)[O-])c3)C(O)C(C)O2)Oc2ccc(cc2Cl)C1O (stereo not drawn) [Compound 213, 3-nitro-4-[2-nitrophenyl]benzyl] | 2 µg/mL (≈ 1.08 µM) | ≤ 0.06 µg/mL | ≤ 0.06 µg/mL |
| CNC(CC(C)C)C(=O)NC1C(=O)NC(CC(N)=O)C(=O)NC2C(=O)NC3C(=O)NC(C(=O)NC(C(=O)O)c4cc(O)cc(O)c4-c4cc3ccc4O)C(OC3CC(C)(N)C(O)C(C)O3)c3ccc(c(Cl)c3)Oc3cc2cc(c3OC2OC(CO)C(O)C(O)C2OC2CC(C)(NCc3cccc(Oc4ccc(C(F)(F)F)cc4)c3)C(O)C(C)O2)Oc2ccc(cc2Cl)C1O (stereo not drawn) [Compound 132, 3-[4-trifluoromethylphenoxy]benzyl] | 2 µg/mL (≈ 1.09 µM) | 1 µg/mL (≈ 0.543 µM) | 1 µg/mL (≈ 0.543 µM) |
| CNC(CC(C)C)C(=O)NC1C(=O)NC(CC(N)=O)C(=O)NC2C(=O)NC3C(=O)NC(C(=O)NC(C(=O)O)c4cc(O)cc(O)c4-c4cc3ccc4O)C(OC3CC(C)(N)C(O)C(C)O3)c3ccc(c(Cl)c3)Oc3cc2cc(c3OC2OC(CO)C(O)C(O)C2OC2CC(C)(NCc3ccc(O)cc3)C(O)C(C)O2)Oc2ccc(cc2Cl)C1O (stereo not drawn) [Compound 136, 4-hydroxybenzyl] | 4 µg/mL (≈ 2.35 µM) | ≤ 0.06 µg/mL | ≤ 0.06 µg/mL |
| CNC(CC(C)C)C(=O)NC1C(=O)NC(CC(N)=O)C(=O)NC2C(=O)NC3C(=O)NC(C(=O)NC(C(=O)O)c4cc(O)cc(O)c4-c4cc3ccc4O)C(OC3CC(C)(N)C(O)C(C)O3)c3ccc(c(Cl)c3)Oc3cc2cc(c3OC2OC(CO)C(O)C(O)C2OC2CC(C)(NCc3ccc(S(=O)(=O)c4ccc(Cl)cc4)cc3)C(O)C(C)O2)Oc2ccc(cc2Cl)C1O (stereo not drawn) [Compound 148, 4-[4-chlorophenylsulfonyl]benzyl] | 2 µg/mL (≈ 1.08 µM) | ≤ 0.06 µg/mL | ≤ 0.06 µg/mL |
| CNC(CC(C)C)C(=O)NC1C(=O)NC(CC(N)=O)C(=O)NC2C(=O)NC3C(=O)NC(C(=O)NC(C(=O)O)c4cc(O)cc(O)c4-c4cc3ccc4O)C(OC3CC(C)(N)C(O)C(C)O3)c3ccc(c(Cl)c3)Oc3cc2cc(c3OC2OC(CO)C(O)C(O)C2OC2CC(C)(NCCCc3ccc(OC)cc3)C(O)C(C)O2)Oc2ccc(cc2Cl)C1O (stereo not drawn) [Compound 175, 3-[4-methoxyphenyl]propyl] | 4 µg/mL (≈ 2.3 µM) | ≤ 0.06 µg/mL | ≤ 0.06 µg/mL |
| CNC(CC(C)C)C(=O)NC1C(=O)NC(CC(N)=O)C(=O)NC2C(=O)NC3C(=O)NC(C(=O)NC(C(=O)O)c4cc(O)cc(O)c4-c4cc3ccc4O)C(OC3CC(C)(N)C(O)C(C)O3)c3ccc(c(Cl)c3)Oc3cc2cc(c3OC2OC(CO)C(O)C(O)C2OC2CC(C)(NCc3cnc4ccccc4c3)C(O)C(C)O2)Oc2ccc(cc2Cl)C1O (stereo not drawn) [Compound 28, 3-quinolylmethyl] | 0.25 µg/mL (≈ 0.144 µM) | ≤ 0.06 µg/mL | 0.25 µg/mL (≈ 0.144 µM) |
| CNC(CC(C)C)C(=O)NC1C(=O)NC(CC(N)=O)C(=O)NC2C(=O)NC3C(=O)NC(C(=O)NC(C(=O)O)c4cc(O)cc(O)c4-c4cc3ccc4O)C(OC3CC(C)(N)C(O)C(C)O3)c3ccc(c(Cl)c3)Oc3cc2cc(c3OC2OC(CO)C(O)C(O)C2OC2CC(C)(NCc3ccc(C#Cc4ccccc4)cc3)C(O)C(C)O2)Oc2ccc(cc2Cl)C1O (stereo not drawn) [Compound 79, 4-phenylethynylbenzyl] | ≤ 0.06 µg/mL | ≤ 0.06 µg/mL | ≤ 0.06 µg/mL |
| CNC(CC(C)C)C(=O)NC1C(=O)NC(CC(N)=O)C(=O)NC2C(=O)NC3C(=O)NC(C(=O)NC(C(=O)O)c4cc(O)cc(O)c4-c4cc3ccc4O)C(OC3CC(C)(N)C(O)C(C)O3)c3ccc(c(Cl)c3)Oc3cc2cc(c3OC2OC(CO)C(O)C(O)C2OC2CC(C)(NCc3sccc3-c3cccs3)C(O)C(C)O2)Oc2ccc(cc2Cl)C1O (stereo not drawn) [Compound 238, 3-[2-thienyl]-2-thienylmethyl] | ≤ 0.06 µg/mL | ≤ 0.06 µg/mL | ≤ 0.06 µg/mL |
| CNC(CC(C)C)C(=O)NC1C(=O)NC(CC(N)=O)C(=O)NC2C(=O)NC3C(=O)NC(C(=O)NC(C(=O)O)c4cc(O)cc(O)c4-c4cc3ccc4O)C(OC3CC(C)(N)C(O)C(C)O3)c3ccc(c(Cl)c3)Oc3cc2cc(c3OC2OC(CO)C(O)C(O)C2OC2CC(C)(NCC3CCC(C4CCCCC4)CC3)C(O)C(C)O2)Oc2ccc(cc2Cl)C1O (stereo not drawn) [Compound 164, 4-[cyclohexyl]cyclohexylmethyl] | 2 µg/mL (≈ 1.13 µM) | 1 µg/mL (≈ 0.565 µM) | 1 µg/mL (≈ 0.565 µM) |
| CNC(CC(C)C)C(=O)NC1C(=O)NC(CC(N)=O)C(=O)NC2C(=O)NC3C(=O)NC(C(=O)NC(C(=O)O)c4cc(O)cc(O)c4-c4cc3ccc4O)C(OC3CC(C)(N)C(O)C(C)O3)c3ccc(c(Cl)c3)Oc3cc2cc(c3OC2OC(CO)C(O)C(O)C2OC2CC(C)(NCc3cc(C)cc(C)c3)C(O)C(C)O2)Oc2ccc(cc2Cl)C1O (stereo not drawn) [Compound 89, 3,5-dimethylbenzyl] | ≤ 0.06 µg/mL | ≤ 0.06 µg/mL | ≤ 0.06 µg/mL |
| CNC(CC(C)C)C(=O)NC1C(=O)NC(CC(N)=O)C(=O)NC2C(=O)NC3C(=O)NC(C(=O)NC(C(=O)O)c4cc(O)cc(O)c4-c4cc3ccc4O)C(OC3CC(C)(N)C(O)C(C)O3)c3ccc(c(Cl)c3)Oc3cc2cc(c3OC2OC(CO)C(O)C(O)C2OC2CC(C)(NCc3cccc(OCc4ccc5ccccc5n4)c3)C(O)C(C)O2)Oc2ccc(cc2Cl)C1O (stereo not drawn) [Compound 125, 3-[2-quinoylmethoxy]benzyl] | 12 µg/mL (≈ 6.52 µM) | 2 µg/mL (≈ 1.09 µM) | ≤ 0.06 µg/mL |
| CNC(CC(C)C)C(=O)NC1C(=O)NC(CC(N)=O)C(=O)NC2C(=O)NC3C(=O)NC(C(=O)NC(C(=O)O)c4cc(O)cc(O)c4-c4cc3ccc4O)C(OC3CC(C)(N)C(O)C(C)O3)c3ccc(c(Cl)c3)Oc3cc2cc(c3OC2OC(CO)C(O)C(O)C2OC2CC(C)(NCc3ccc(S(=O)(=O)N4CCCC4)cc3)C(O)C(C)O2)Oc2ccc(cc2Cl)C1O (stereo not drawn) [Compound 174, 4-[1-pyrrolidinosulfonyl]benzyl] | 16 µg/mL (≈ 8.81 µM) | ≤ 0.06 µg/mL | ≤ 0.06 µg/mL |
